# According to article PMC8020795 (Proceedings of the National Academy of Sciences of the …, 2021):
# “Also recorded” adds a separate entry of the source.
# Experiments:
# [1] = Metabolic stability in liver microsomes; assay type: in vitro ADME; settings: mouse, rat, dog, and human
# Source text: Figure S4. The metabolic stabilities of BPRCX807 in liver microsomes. BPRCX807 is […]
# orthotopic HCA-1 tumors = experiment: Orthotopic HCA-1 HCC model; assay type: in vivo, C3H mice; settings: for Overall survival: n = 8
# Description: In vivo hepatocellular carcinoma treatment studies […]
# mouse PD-1 (200 µg/mouse; BioXcell, BE0146). The therapeutic efficacy and the changes in immune cells were analyzed after two weeks of treatment. The tumor volume was calculated with the following formula: volume = width × length × height/2. […]
# Hematoxylin and Eosin staining
# Lung tissue was cut into small pieces and fixed in 4% PFA (in PBS) overnight before being embedded in paraffin wax. The sections were then stained with hematoxylin and eosin (H&E) and observed with an inverted microscope (IX83, Olympus, Japan).
# HCA-1 tumor-bearing mice were anesthetized, perfused via intracardiac injection with PBS and then sacrificed. Tumor tissues were collected and harvested in enzyme-containing DMEM cell culture medium (1.5 mg/mL of collagenase type 1A and hyaluronidase; Sigma).
# The tissues were cut and ground into smaller pieces and then digested for 1 h at 37 °C to form suspensions of single tumor cells. The suspensions were filtered through a 70-µm cell strainer (Corning, Manassas, VA), and the cells were then incubated with rat anti-mouse CD16/CD32 mAbs to block Fc receptors. After washing 3 times and resuspending in cold flow buffer (1% BSA, 0.1% NaN3 in PBS), the single-cell suspensions were incubated with monoclonal anti-mouse F4/80-PE (eBiosciences, San Diego, CA), 7-AAD, CD3e-APC, CD8a-PE-Cy7, CD45-FITC, CD4-PE (BD Biosciences, East Rutherford, NJ), CD86-APC-
# CXCR4 = CXCR4 (Homo sapiens, UniProt P61073); experiment: PathHunter β-arrestin assay, chemokine receptor selectivity; assay type: cell-based
# Source text: (§1) Table: List of genes examined by real-time PCR and the primer sequences used.
# (§2) Genes Forward primers Reverse primers […]
# (§3) Vim 5’-[…]-3’ 5’-[…]-3’ […]
# (§4) Zeb2 5’-[…]-3’ 5’-[…]-3’
# (§5) Twist1 5’-[…]-3’ 5’-[…]-3’
# (§6) Cdh1 5’-[…]-3’ 5’-[…]-3’
# (§7) Mta3 5’-[…]-3’ 5’-[…]-3’ […]
# (§8) Off-target standard assays
# (§9) Methods employed in this study have been adapted from the scientific literature to […]
# (§10) maximize reliability and reproducibility. Reference standards were run as an integral part of […]
# (§11) each assay to ensure the validity of the results obtained. Radioligand binding Assays were […]
# (§12) performed under conditions described in the accompanying "Methods" section of this report […]
# (§13) by Eurofins Panlabs, Inc (Taipei, Taiwan, ROC).
# (§14) BPRCX807 were tested in the hERG (hERG-CHO, automated patch-clamp) assay and determined at Eurofins Panlabs (Missouri, USA). The experiment was accepted in accordance with Eurofins validation Standard Operating Procedure.
# (§15) Selectivity Screening of various chemokine receptors
# (§16) The results were performed by Eurofins DiscoverX (Fremont, California, USA). The […]
# (§17) PathHunter® β -Arrestin assay was performed in a homogenous, non-imaging assay format […]
# (§18) using a technology developed by DiscoverX called Enzyme Fragment Complementation […]
# (§19) called Enzyme Acceptor (EA). PK and EA are then expressed as fusion proteins in the cell, […]
# (§20) restoring β-Gal activity which is measured using chemiluminescent PathHunter® Detection […]
# [2] = tested on: other chemokine receptors (10 CCRs, 7 CXCRs, and 1 CX3CR subtypes); experiment: as above; assay type: cell-based; settings: 10 µM
# Source text: as §1, §2, §3, §4, §5, §6, §7, §8, §9, §10, §11, §12, §13, §14, §15, §16, §17, §18, §19, §20
# in vivo = settings: male, C57BL/6, mouse, in vivo, sc, 6 mg/kg
# Description: Pharmacokinetics and toxicological studies
# Male C57BL/6 mice, each weighing 23.4–25.4 g, were quarantined for 1 week before drug treatment. Compounds dissolved in 100% saline were individually given to mice (n = 3) subcutaneously (6 mg/kg; nonfasted mice). Blood samples were collected via cardiac puncture at defined time points (0 (immediately before dosing), 0.03, 0.08, 0.25, 0.5, 1, 2, and 4 h after dosing) and then stored at −80 °C. The volume of the dosing solution given was 100 µL for each mouse. The plasma samples were analyzed by liquid chromatography– tandem mass spectrometry (LC–MS/MS), and the data were calculated by a standard noncompartmental method using the Kinetica software program (InnaPhase). […]
# bradykinin B1 receptor = molecular target: T1, bradykinin B1 receptor (Homo sapiens, UniProt P46663); experiment: Off-target standard assay (radioligand binding, Eurofins Panlabs); settings: read-out: Inhibition of bradykinin B1 receptor (B1R)
# T1 construct: purchased Eurofins Panlabs, Inc (Taipei, Taiwan, ROC)
# T1 sequence (P46663 1-353): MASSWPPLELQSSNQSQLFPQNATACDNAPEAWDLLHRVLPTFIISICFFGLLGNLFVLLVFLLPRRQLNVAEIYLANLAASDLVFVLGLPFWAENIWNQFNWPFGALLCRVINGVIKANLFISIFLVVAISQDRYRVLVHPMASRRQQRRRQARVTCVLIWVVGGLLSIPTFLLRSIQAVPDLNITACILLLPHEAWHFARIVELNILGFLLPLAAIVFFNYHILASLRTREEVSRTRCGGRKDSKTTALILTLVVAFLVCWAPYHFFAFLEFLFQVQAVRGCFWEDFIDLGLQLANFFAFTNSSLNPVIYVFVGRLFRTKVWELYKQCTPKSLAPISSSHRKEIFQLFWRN
# Source text: as §1, §2, §3, §4, §5, §6, §7, §8, §9, §10, §11, §12, §13, §14, §15
# (§21) The results were performed by Eurofins DiscoverX (Fremont, California, USA). The
# dopamine D3 receptor = molecular target: T2, dopamine D3 receptor (Homo sapiens, UniProt P35462); experiment: as above; settings: read-out: Inhibition of dopamine D3 receptor (D3R)
# T2 construct: purchased Eurofins Panlabs, Inc (Taipei, Taiwan, ROC)
# Source text: as §1, §2, §3, §4, §5, §6, §7, §8, §9, §10, §11, §12, §13, §14, §15, §21
# [3] = alone or combined with sorafenib
# T2 sequence (P35462 whole entry, species assumed): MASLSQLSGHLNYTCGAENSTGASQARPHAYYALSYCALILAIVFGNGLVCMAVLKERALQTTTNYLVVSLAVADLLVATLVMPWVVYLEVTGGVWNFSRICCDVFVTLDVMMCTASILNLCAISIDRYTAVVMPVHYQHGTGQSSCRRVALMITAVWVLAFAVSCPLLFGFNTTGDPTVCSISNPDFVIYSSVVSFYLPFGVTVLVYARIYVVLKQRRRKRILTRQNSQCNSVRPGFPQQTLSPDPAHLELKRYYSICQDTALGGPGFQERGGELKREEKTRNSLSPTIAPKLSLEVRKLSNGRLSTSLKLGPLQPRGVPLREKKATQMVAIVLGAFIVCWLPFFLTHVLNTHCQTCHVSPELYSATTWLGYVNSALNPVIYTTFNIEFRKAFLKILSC
# Chain of CXCR4 (P61073 whole entry): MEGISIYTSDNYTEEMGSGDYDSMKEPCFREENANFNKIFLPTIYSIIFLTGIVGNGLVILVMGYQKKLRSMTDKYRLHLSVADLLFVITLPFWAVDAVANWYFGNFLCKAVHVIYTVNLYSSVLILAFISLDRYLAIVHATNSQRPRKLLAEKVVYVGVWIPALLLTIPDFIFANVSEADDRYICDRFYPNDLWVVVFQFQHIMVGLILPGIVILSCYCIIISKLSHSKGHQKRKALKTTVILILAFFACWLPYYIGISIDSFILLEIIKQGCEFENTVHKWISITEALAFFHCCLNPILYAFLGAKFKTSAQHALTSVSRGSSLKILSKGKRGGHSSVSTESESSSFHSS
structure (smiles),measurement,setting,value
Cc1cc(NC2CCN(C(=O)CCNCC(=O)O)CC2)nc(NCc2nc(CCCNCCCNC3CCCCC3)co2)n1 [BPRCX807],Metabolic stability in liver microsomes,[1],metabolically stable
same,Lung metastasis (number of lung nodules),"orthotopic HCA-1 tumors; BPRCX807 combined with sorafenib, day 24",significantly suppress lung metastasis
same,Proportion of M1-like CD86+ TAMs in tumors,orthotopic HCA-1 tumors; [3],increasing the proportion
same,Proportion of M2-like CD206+ TAMs in tumors,orthotopic HCA-1 tumors; [3],decreasing
same,Tumor size reduction vs. control,"orthotopic HCA-1 tumors; combination of BPRCX807 (15 mg/kg/d SC) with anti–PD-1 (200 μg/mouse IP), day 24",more than 95%
same,Lung metastasis,orthotopic HCA-1 tumors; combination with anti–PD-1,significantly prevented
same,Overall survival,orthotopic HCA-1 tumors; combination with anti–PD-1 vs either alone,significantly prolonged
same,Tumor volume reduction,"orthotopic HCA-1 tumors; combination with sorafenib (40 mg/kg/d, oral), BPRCX807 15 mg/kg/d SC minipump",roughly 85%
same,Overall survival,orthotopic HCA-1 tumors; combination with sorafenib vs BPRCX807 (P = 0.0123) or sorafenib (P = 0.0053) alone,significantly extended
same,F4/80+ TAMs infiltration into tumor (flow cytometry),orthotopic HCA-1 tumors; treatment alone,significantly decreased
same,CD8+ T cell infiltration into tumors,"orthotopic HCA-1 tumors; treatment alone, compared to no treatment",moderately increased
same,"Intratumoral mean vessel density (MVD, CD31+ staining)","orthotopic HCA-1 tumors; treatment alone, day 24",significantly decrease intratumoral MVD
same,Lung metastasis (number of lung nodules),"orthotopic HCA-1 tumors; treatment alone, day 24",reduced; also recorded: significantly suppress lung metastasis
same,Tumor growth,"orthotopic HCA-1 tumors; treatment alone, immunotherapy study, day 24",moderately inhibiting tumor growth
same,inhibition at 10 µM,CXCR4,100%
same,Inhibition of other chemokine receptors (β-arrestin assay),[2],< 10%
same,AUC(0-t),in vivo,16500 ng·h/mL
same,Cmax,in vivo,18800 ng/mL
same,half-life,in vivo,1 h
same,inhibition at 10 µM,bradykinin B1 receptor,62%
same,inhibition at 10 µM,dopamine D3 receptor,58%
